This is an account of results in patent US20190330167A1, “ACTIVATORS OF HIV LATENCY” (priority 2016, published 2019).

pEC50: −log10 of the molar value.

This assay has as its system HIV-1 long terminal repeat (LTR)-driven luciferase reporter gene in FlipIn.FM HEK293 cells. Nature of the assay: cells. The assay is classed as cell-based. On the procedure: FIG. 44. […] The FlipIn.FM model of HIV-1 latency was treated with JQ1 (+) and DP#14 (Compound 7) alone at 10 μM and in combination, and the HIV-1 gene expression measured 48 hrs post treatment. Error bars represent standard deviation of n=3 experiments. OPTI represents media alone, without DP#14.
FIG. 46. […] The FlipIn.FM model of HIV-1 latency was treated with PFI-1 and DP#14 alone at 10 μM and in combination, and the HIV-1 gene expression measured 48 hrs post treatment. Error bars represent standard deviation of n=3 experiments. OPTI represents media alone, without DP#14.
Explicitly, HEK293 derived FlipIn-FM and FlipIn-RV dual reporter cells each include a single stable HIV-1 long terminal repeat (LTR)-driven luciferase reporter genes, with a second complimentary non-HIV (off-target) luciferase reporter. These cell lines model post integration latency and read-through transcription by expressing a low level of HIV-1 Tat protein via a native Internal Ribosome Entry Site (IRES) found within Tat, from a chimeric cellular-tat gene cassette. FlipIn-FM and FlipIn-RV clones were chosen for low basal levels of LTR activity and high responsiveness to Tat as well as many Latency Reversing Agents (LRAs).
The dual reporter cell lines contain three stably integrated constructs that together allow for detection of novel LRAs, capable of potent and specific HIV reactivation. The FlipIn.FM line contains a proviral LTR-driven nef/CBR reporter fusion gene, allowing for detection of viral gene expression. A second CMV-driven CBG luciferase reporter allows for detection of off target drug effects, including non-specific activation and drug toxicity. The third construct contains the first coding exon of HIV-1 tat, within human Growth Hormone (hGH) as a chimeric gene, expressing HIV-1 Tat protein from an IRES mechanism that underlies the tat exon. This construct models read-through transcription and the low level of Tat protein expression that occurs during post integration latency. The counter screening reverse cell line, FlipIn.RV, contains the same three components with the Click Beetle Luciferase genes in the opposite orientation (LTR-CBG and CMV-CBR) for counter screening.
Compounds were evaluated in an 11-point titration using normal CMV-CBG/LTR-CBR reporter cell line and an 11 point reverse CMV-CBR/LTR-CBG reporter cell line.
The FlipIn cell lines were therefore designed with a dual purpose, to detect novel compounds that reactivate HIV-1 and to also screen out compounds that behaved in a largely non-specific manner. To achieve the latter, the cell lines contain an “off target” reporter gene construct, driven by the unrelated CMV-IE promoter, that allows for the detection of drug mediated off target effects including global gene activation as well as possible toxicity.
The HIV-LTR driven latent reporter gene identifies the HIV-specific activation, and the term “global reporter” is interchangeable with “off target reporter” and refers to the unrelated CMV-IE promoter driven reporter gene, which is used as a surrogate for global gene activation. […] The highest concentration tested here was 40 μM.

Consider `O=C(CCCOc1ccccc1)Nc1ncc(Br)s1` [Compound 7], for which, for the setting “FlipIn.FM model, alone at 10 μM and in combination, 48 hrs post treatment”, the “fold change in HIV-1 gene expression over the unstimulated baseline” value is 4.2 fold. Moreover, the pEC50 (as a rule, the negative decadic logarithm of the EC50, by convention in mol/L) (Human immunodeficiency virus 1, HEK293, HIV-LTR driven latent reporter, 11-point, 2-fold dilution series, highest concentration 40 μM, read-out: Latent reporter Av EC50) is 5.79.
